# From US20260184691A1, “INHIBITORS AND DEGRADERS OF PIP4K PROTEIN” (Larkspur Biosciences, Inc., priority 2022, published 2026)
# Biological target: T1, Human PIP4K2C (Homo sapiens, UniProt Q8TBX8)
# T1 construct: purchased Eurofins DiscoverX 87-0007-1094
# T1 sequence (Q8TBX8 1-421): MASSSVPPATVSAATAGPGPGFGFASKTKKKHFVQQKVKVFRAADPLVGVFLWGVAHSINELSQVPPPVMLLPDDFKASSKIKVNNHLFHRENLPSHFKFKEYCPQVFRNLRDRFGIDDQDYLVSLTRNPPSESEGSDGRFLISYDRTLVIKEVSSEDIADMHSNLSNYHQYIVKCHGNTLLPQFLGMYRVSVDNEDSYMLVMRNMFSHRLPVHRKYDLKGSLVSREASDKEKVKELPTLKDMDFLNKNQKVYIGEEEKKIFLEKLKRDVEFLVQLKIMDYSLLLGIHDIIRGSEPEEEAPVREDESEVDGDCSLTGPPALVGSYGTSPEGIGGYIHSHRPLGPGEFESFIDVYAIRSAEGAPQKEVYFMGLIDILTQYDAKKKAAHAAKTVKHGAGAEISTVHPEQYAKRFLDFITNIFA
# Assay: Enzyme binding assay (KINOMEscan), active site-directed competition binding
# Conditions: 11-point dose response, duplicate, top concentration 5 micromolar; read-out: Pip4k2c Kd: IC50
# Procedure, shortened: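 Active site-directed competition against immobilized ligand. 11-point dose response in duplicate, top concentration 5 micromolar; IC50 from Hill fit by Levenberg-Marquardt.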
row,IC50,Compound
1,< 500 nM,"CCCCC(=O)NC1CCCN(c2nc(Nc3cncc(N4CCCC4=O)c3)ncc2Cl)C1 (stereo not drawn) [Compound 110, N-(1-(5-chloro-2-((5-(2-oxopyrrolidin-1-yl)pyridin-3-yl)amino)pyrimidin-4-yl)piperidin-3-yl)pentanamide]"
2,< 500 nM,"O=C1CCCN1c1cncc(Nc2ncc(Cl)c(N3C(=O)CC[C@H]3c3ccccc3)n2)c1 [29, Enant A]"
3,< 500 nM,"O=C1CCCN1c1cncc(Nc2ncc(F)c(-c3ccc(=O)n(CC4CC4)c3)n2)c1 [Compound 158, 1-(cyclopropylmethyl)-5-(5-fluoro-2-((5-(2-oxopyrrolidin-1-yl)pyridin-3-yl)amino)pyrimidin-4-yl)pyridin-2(1H)-one]"
4,< 500 nM,"O=C1CCCN1c1cncc(Nc2ncc(Cl)c(C3CCCN(c4ccccc4)C3)n2)c1 (stereo not drawn) [Compound 141, 1-(5-((5-chloro-4-(1-phenylpiperidin-3-yl)pyrimidin-2-yl)amino)pyridin-3-yl)pyrrolidin-2-one]"
5,< 500 nM,"O=C(c1ccc(F)cc1)N1CCCC(c2nc(Nc3cncc(N4CCCC4=O)c3)ncc2Cl)C1 (stereo not drawn) [Compound 162, 1-(5-((5-chloro-4-(1-(4-fluorobenzoyl)piperidin-3-yl)pyrimidin-2-yl)amino)pyridin-3-yl)pyrrolidin-2-one]"
6,500 to 1000 nM,"O=C1CCCN1c1cncc(Nc2ncc(Cl)c(N3C(=O)CC[C@@H]3c3ccccc3)n2)c1 [29, Enant B]"
7,< 500 nM,"O=C1CCCN1c1cncc(Nc2ncc(F)c(-c3cnn(C4COC4)c3)n2)c1 [Compound 148, 1-(5-((5-fluoro-4-(1-(oxetan-3-yl)-1H-pyrazol-4-yl)pyrimidin-2-yl)amino)pyridin-3-yl)pyrrolidin-2-one]"
8,< 500 nM,"COc1ccc(-c2cccc(-c3nc(Nc4cncc(N5CCCC5=O)c4)ncc3Cl)c2)cc1 [Compound 5, 1-(5-((5-chloro-4-(4′-methoxy-[1,1′-biphenyl]-3-yl)pyrimidin-2-yl)amino)pyridin-3-yl)pyrrolidin-2-one]"
9,< 500 nM,"O=C1CCCN1c1cncc(Nc2ncc(Cl)c(N3CCCC(C4CC4)C3)n2)c1 (stereo not drawn) [Compound 126, 1-(5-((5-chloro-4-(3-cyclopropylpiperidin-1-yl)pyrimidin-2-yl)amino)pyridin-3-yl)pyrrolidin-2-one]"
10,< 500 nM,"O=C1CCCN1c1cncc(Nc2ncc(Cl)c(N3CCCC(C4CCC4)C3)n2)c1 (stereo not drawn) [Compound 123, 1-(5-((5-chloro-4-(3-cyclobutylpiperidin-1-yl)pyrimidin-2-yl)amino)pyridin-3-yl)pyrrolidin-2-one]"
11,< 500 nM,"O=C(c1ccc(F)cc1)N1CCC(c2nc(Nc3cncc(N4CCCC4=O)c3)ncc2Cl)C1 (stereo not drawn) [Compound 159, 1-(5-((5-chloro-4-(1-(4-fluorobenzoyl)pyrrolidin-3-yl)pyrimidin-2-yl)amino)pyridin-3-yl)pyrrolidin-2-one]"
12,< 500 nM,"O=C(c1cccc(=O)[nH]1)N1CCCC(c2nc(Nc3cncc(N4CCCC4=O)c3)ncc2Cl)C1 (stereo not drawn) [Compound 161, 6-(3-(5-chloro-2-((5-(2-oxopyrrolidin-1-yl)pyridin-3-yl)amino)pyrimidin-4-yl)piperidine-1-carbonyl)pyridin-2(1H)-one]"
13,< 500 nM,"O=C1CCCN1c1cncc(Nc2ncc(Cl)c(-c3cccc(C4CC4)c3)n2)c1 [Compound 12, 1-(5-((5-chloro-4-(3-cyclopropylphenyl)pyrimidin-2-yl)amino)pyridin-3-yl)pyrrolidin-2-one]"
14,< 500 nM,"O=C1CCCN1c1cncc(Nc2ncc(Cl)c(N3CCC(c4ccccc4)C3)n2)c1 (stereo not drawn) [Compound 42, 1-(5-((5-chloro-4-(3-phenylpyrrolidin-1-yl)pyrimidin-2-yl)amino)pyridin-3-yl)pyrrolidin-2-one]"
15,< 500 nM,"O=C1CCCN1c1cncc(Nc2ncc(Cl)c(-c3cccc(C4CCCCC4)c3)n2)c1 [Compound 19, 1-(5-((5-chloro-4-(3-cyclohexylphenyl)pyrimidin-2-yl)amino)pyridin-3-yl)pyrrolidin-2-one]"
